Measurements reported in patent publication US8575145B2, “Triazolopyridine compounds as PIM kinase inhibitors” (Array BioPharma Inc., priority 2008, dated 2013).
Where a name gives a salt, the structure may show the parent alone. Read-outs that look alike come from different tables or passages of the source.

Legend:
recombinant rat PIM-3 = recombinant rat PIM-3 (Rattus norvegicus (Rat), UniProt O70444); assay: PIM-3 Enzyme Assay; conditions: 30 μM ATP, 0.5 nM PIM-3
Protocol: The amount of radiolabeled product is then measured by liquid scintillation counting. The final buffer conditions were as follows: 20 mM K^+MOPS, pH 7.4, 10 mM MgCl2, 0.005% Tween-20, 1 mM DTT. […] Incubations were carried out for 60 min at 22° C. and quenched with 75 μL of 200 mM H3PO4, filtered through a Whatman P81 plate and washed (1×200 μL and 5×100 μL ) with 200 mM H3PO4. Liquid scintillation cocktail (50 μL ) was then added per well, and the plate was counted for 30 s/well using a TopCount NXT.
One-μL aliquots of these were then transferred to the assay mixtures above to give a final concentration of DMSO of 2%. […] For each plate, percent of control (POC) values were calculated for each well. IC50's were estimated from the POC's using a standard 4-parameter logistic model. The IC50 is defined as the concentration of inhibitor at which the POC equals 50 for the fitted curve.

PIM-1 = PIM-1 (Homo sapiens (Human), UniProt P11309); assay: PIM-1 Enzyme Assay; assay type: biochemical
Outline: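 Radiometric kinase assay in 20 mM K+MOPS pH 7.4, 10 mM MgCl2, 0.005% Tween-20, 1 mM DTT, 2% DMSO final; 60 min at 22° C, stopped with H3PO4, product captured on P81 filter and counted by scintillation. IC50 from 4-parameter logistic fit of percent of control.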

[1] = biological target: GST-tagged recombinant full-length human PIM-2 (Homo sapiens (Human), UniProt Q9P1W9); assay: PIM-2 Enzyme Assay
[2] = read-out: PIM-2 IC50, 4 μM ATP, […] PIM-2
[3] = PIM-2 IC50 (nM), 4 μM ATP, […] PIM-2

Chain of PIM-1 (P11309 whole entry, species assumed): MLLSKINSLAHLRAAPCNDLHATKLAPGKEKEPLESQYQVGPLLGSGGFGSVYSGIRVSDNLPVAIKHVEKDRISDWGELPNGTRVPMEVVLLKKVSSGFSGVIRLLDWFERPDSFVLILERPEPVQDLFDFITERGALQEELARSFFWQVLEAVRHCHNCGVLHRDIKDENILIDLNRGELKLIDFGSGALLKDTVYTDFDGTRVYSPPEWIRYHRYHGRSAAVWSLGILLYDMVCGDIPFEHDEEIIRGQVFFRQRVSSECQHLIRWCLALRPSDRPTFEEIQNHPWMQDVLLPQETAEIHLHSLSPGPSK
Chain of GST-tagged recombinant full-length human PIM-2 (Q9P1W9 whole entry): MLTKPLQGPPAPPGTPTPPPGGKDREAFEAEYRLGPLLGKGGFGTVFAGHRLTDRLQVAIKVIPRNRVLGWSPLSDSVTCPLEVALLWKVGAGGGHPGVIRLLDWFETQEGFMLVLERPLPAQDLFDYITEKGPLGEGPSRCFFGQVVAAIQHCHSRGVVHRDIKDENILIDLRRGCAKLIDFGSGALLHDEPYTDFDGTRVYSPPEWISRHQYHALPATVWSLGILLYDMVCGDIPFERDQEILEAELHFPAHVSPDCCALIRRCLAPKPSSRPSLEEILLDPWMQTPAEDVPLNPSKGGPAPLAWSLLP

Row | SMILES | IC50 (recombinant rat PIM-3; read-out: PIM-3 IC50) [nM] | IC50 (PIM-1; 35 μM ATP, 0.25 nM PIM-1) [nM] | IC50 [1, 2] [nM] | further results
1 | CC[C@H](CN)C(C)Oc1cccc2ccc(-c3nnc4ccccn34)nc12 (stereo partly drawn) [Example 33, (2R)-3-(2-([1,2,4]triazolo[4,3-a]pyridin-3-yl)quinolin-8-yloxy)-2-ethylbutan-1-amine] | 19 | 5 | 279 | –
2 | c1cc(OC2CCNCC2)c2nc(-c3nnc4ccccn34)ccc2c1 [Example 9, 2-([1,2,4]triazolo[4,3-a]pyridin-3-yl)-8-(piperidin-4-yloxy)quinoline di-trifluoroacetate] | 17 | 4 | – | IC50 ([1]; read-out: PIM-2 IC50): 570 nM
3 | CON(C)C(=O)[C@@H]1C[C@@H](Oc2cccc3ccc(-c4nnc5ccccn45)nc23)CCN1 [Example 55, (2S,4S)-4-(2-([1,2,4]triazolo[4,3-a]pyridin-3-yl)quinolin-8-yloxy)-N-methoxy-N-methylpiperidine-2-carboxamide dihydrochloride] | 222 | 70 | 10000 | –
4 | c1cc(O[C@H]2CCNC2)c2nc(-c3nnc4ccccn34)ccc2c1 [Example 12, (S)-2-([1,2,4]Triazolo[4,3-a]pyridin-3-yl)-8-(pyrrolidin-3-yloxy)quinoline] | 77 | 30 | 4910 | –
5 | OCC(O)COc1cccc2ccc(-c3nnc4ccccn34)nc12 (stereo not drawn) [Example 62, 3-(2-([1,2,4]triazolo[4,3-a]pyridin-3-yl)quinolin-8-yloxy)propane-1,2-diol] | 262 | 34 | 1720 | –
6 | c1cc(OCCC2CCCCN2)c2nc(-c3nnc4ccccn34)ccc2c1 (stereo not drawn) [Example 15, 2-([1,2,4]Triazolo[4,3-a]pyridin-3-yl)-8-(2-(piperidin-2-yl)ethoxy)quinoline] | 102 | 16 | 4220 | –
7 | FC1CNCCCC1Oc1cccc2ccc(-c3nnc4ccccn34)nc12 (stereo not drawn) [Example 51, 2-([1,2,4]triazolo[4,3-a]pyridin-3-yl)-8-(3-fluoroazepan-4-yloxy)quinoline dihydrochloride] | 10 | 3 | – | IC50 ([1]; read-out: PIM-2 IC50): 406 nM
8 | CC1(COc2cccc3ccc(-c4nnc5ccccn45)nc23)CCN(CCO)CC1 [Example 86, dihydrochloride] | 10 | 3 | – | IC50 ([1]; read-out: PIM-2 IC50): 142 nM
9 | Cc1ccc2nnc(-c3ccc4cccc(OC5CCNCCC5F)c4n3)n2c1 (single isomer, unassigned) [Example 99, 8-((trans)-5-fluoroazepan-4-yloxy)-2-(6-methyl-[1,2,4]triazolo[4,3-a]pyridin-3-yl)quinoline dihydrochloride] | – | – | – | IC50 (recombinant rat PIM-3; read-out: PIM-3 IC50, dihydrochloride): 39.7 nM; IC50 (PIM-1; 35 μM ATP, 0.25 nM PIM-1, dihydrochloride): 17.4 nM; IC50 ([1]; read-out: PIM-2 IC50, 4 μM ATP, […] PIM-2, dihydrochloride): 1000 nM
10 | FC1CCNCCC1Oc1cccc2ccc(-c3nnc4ccccn34)nc12 (single isomer, unassigned) [Example 47, 2-([1,2,4]triazolo[4,3-a]pyridin-3-yl)-8-(-5-fluoroazepan-4-yloxy)quinoline dihydrochloride] | – | 32 | – | IC50 (recombinant rat PIM-3; PIM-3 IC50 (nM)): 41 nM; IC50 [1, 3]: 1170 nM
11 | Fc1ccc2nnc(-c3ccc4cccc(O[C@H]5CCNC[C@H]5F)c4n3)n2c1 (relative stereo) [Example 59, 2-(6-fluoro-[1,2,4]triazolo[4,3-a]pyridin-3-yl)-8-((cis)-3-fluoropiperidin-4-yloxy)quinoline] | 98 | 55 | 2870 | –
12 | OCC1(COc2cccc3ccc(-c4nnc5ccccn45)nc23)CC1 [Example 22, (1-((2-([1,2,4]triazolo[4,3-a]pyridin-3-yl)quinolin-8-yloxy)methyl)cyclopropyl)methanol] | 25 | 5 | 501 | –
13 | FC1(COc2cccc3ccc(-c4nnc5ccccn45)nc23)CCNCC1 [Example 66, 2-([1,2,4]triazolo[4,3-a]pyridin-3-yl)-8-((4-fluoropiperidin-4-yl)methoxy)quinoline dihydrochloride] | 3 | – | – | IC50 (PIM-1): 0.8 nM; IC50 ([1]; read-out: PIM-2 IC50): 52 nM
14 | FC1CCNCCC1Oc1cccc2ccc(-c3nnc4ccccn34)nc12 (single isomer, unassigned) [Example 50, 2-([1,2,4]triazolo[4,3-a]pyridin-3-yl)-8-(5-fluoroazepan-4-yloxy)quinoline dihydrochloride] | – | 12 | – | IC50 (recombinant rat PIM-3; PIM-3 IC50 (nM)): 8 nM; IC50 [1, 3]: 290 nM
15 | c1cc(OC2CCCNCC2)c2nc(-c3nnc4ccccn34)ccc2c1 (single isomer, unassigned) [Example 128, 2-([1,2,4]triazolo[4,3-a]pyridin-3-yl)-8-(azepan-4-yloxy)quinoline] | 79.4 | 19.1 | 1000 | –

More lines, main results first:

Row | IC50 (recombinant rat PIM-3; read-out: PIM-3 IC50) [nM] | IC50 (PIM-1; 35 μM ATP, 0.25 nM PIM-1) [nM] | IC50 [1, 2] [nM] | SMILES | further results
16 | 10.1 | 3.3 | 300 | CC(C)(COc1cc(F)cc2ccc(-c3nnc4ccccn34)nc12)[C@@H](O)CO [Example 112, (R)-4-(2-([1,2,4]triazolo[4,3-a]pyridin-3-yl)-6-fluoroquinolin-8-yloxy)-3,3-dimethylbutane-1,2-diol dihydrochloride] | –
17 | 10 | 1.3 | 126 | CCC1(COc2cccc3ccc(-c4nnc5ccccn45)nc23)CCNCC1 [Example 68, 2-([1,2,4]triazolo[4,3-a]pyridin-3-yl)-8-((4-ethylpiperidin-4-yl)methoxy)quinoline dihydrochloride] | –
18 | 11 | 2 | 562 | c1cc(OCC2CCNCC2)c2nc(-c3nnc4ccccn34)ccc2c1 [Example 14, 2-([1,2,4]Triazolo[4,3-a]pyridin-3-yl)-8-(piperidin-4-ylmethoxy)quinoline] | –
19 | 2 | 0.7 | 17 | CC(C)(CO)COc1cccc2ccc(-c3nnc4cc(CN)ccn34)nc12 [Example 19, 3-(2-(7-(aminomethyl)-[1,2,4]triazolo[4,3-a]pyridin-3-yl)quinolin-8-yloxy)-2,2-dimethylpropan-1-ol] | –
20 | 13 | 3 | 318 | CCC(Oc1cccc2ccc(-c3nnc4ccccn34)nc12)[C@@H](CC)CN (stereo partly drawn) [Example 30, (2S)-3-(2([1,2,4]triazolo[4,3-a]pyridin-3-yl)quinolin-8-yloxy)-2-ethylpentan-1-amine] | –
21 | 19 | 4 | 413 | CCC(Oc1cccc2ccc(-c3nnc4ccccn34)nc12)[C@H](CC)CN (stereo partly drawn) [Example 31, (2R)-3-(2-([1,2,4]triazolo[4,3-a]pyridin-3-yl)quinolin-8-yloxy)-2-ethylpentan-1-amine] | –
22 | 2 | 0.4 | 131 | Fc1cc(OC2CCNCCC2F)c2nc(-c3nnc4ccccn34)ccc2c1 (single isomer, unassigned) [Example 90, cis-2-([1,2,4]triazolo[4,3-a]pyridin-3-yl)-6-fluoro-8-5-fluoroazepan-4-yloxy)quinoline] | –
23 | 3 | 1 | 244 | Cc1ccn2c(-c3ccc4cccc(OC5CCNCCC5F)c4n3)nnc2c1 (single isomer, unassigned) [Example 92, cis-8-5-fluoroazepan-4-yloxy)-2-(7-methyl-[1,2,4]triazolo[4,3-a]pyridin-3-yl)quinoline] | –
24 | 0.9 | 0.8 | 39 | Fc1cc(OC2CCNCCC2F)c2nc(-c3nnc4ccccn34)ccc2c1 (single isomer, unassigned) [Example 91, trans-2-([1,2,4]triazolo[4,3-a]pyridin-3-yl)-6-fluoro-8-5-fluoroazepan-4-yloxy)quinoline] | –
